From the supplement of paper PMC11061612

What was measured:
[1] = test system: RPMI-6666 (Non-Cancerous); assay: Bliss excess, mean over the matrix (fraction); higher = more synergy
Summary of the method: (§1)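 Cell lines in DMEM/F12 or RPMI with 10% FBS were plated in 1536-well plates, held 24 hours at 37°C, 5% CO2, then given two-drug dose matrices for 72 hours (DMSO typically 0.2%). Viability was read by CellTiter-Glo 2.0 luminescence and scaled as inhibition from 0 (vehicle wells) to 1 (blank wells). Combination Emax is the second-highest inhibition in the matrix; Bliss excess is observed combination effect minus expected EA + EB − EA·EB, EA and EB being single-agent effects.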

[2] = test system: 639-V (Bladder Carcinoma); assay: as above
Summary of the method: as §1

[3] = test system: RT-112 (Bladder Carcinoma); assay: as above
Summary of the method: as §1

[4] = test system: SU-DHL-6 (B-Cell Non-Hodgkin's Lymphoma); assay: as above
Summary of the method: as §1

[5] = test system: HMV-II (Melanoma); assay: as above
Summary of the method: as §1

[6] = test system: OC-314 (Ovarian Carcinoma); assay: as above
Summary of the method: as §1

[7] = test system: LB771-HNC (Head and Neck Carcinoma); assay: as above
Summary of the method: as §1

[8] = test system: HCC-15 (Squamous Cell Lung Carcinoma); assay: as above
Summary of the method: as §1

[9] = test system: UMC-11 (Other Solid Carcinomas); assay: as above
Summary of the method: as §1

[10] = test system: 8305C (Thyroid Gland Carcinoma); assay: as above
Summary of the method: as §1

[11] = test system: SH-4 (Melanoma); assay: as above
Summary of the method: as §1

[12] = test system: CAL-51 (Breast Carcinoma); assay: as above
Summary of the method: as §1

[13] = test system: RKO (Colorectal Carcinoma); assay: as above
Summary of the method: as §1

[14] = test system: Hs-633T (Other Solid Carcinomas); assay: as above
Summary of the method: as §1

[15] = test system: CAPAN-1 (Pancreatic Carcinoma); assay: as above
Summary of the method: as §1

[16] = test system: CTB-1 (B-Cell Non-Hodgkin's Lymphoma); assay: as above
Summary of the method: as §1

[17] = test system: EN (Endometrial Carcinoma); assay: combination Emax (second highest fraction inhibited in the dose matrix, 72 h); higher = more inhibition; extreme values may be limits of the assay
Summary of the method: as §1

[18] = test system: HMV-II (Melanoma); assay: as above
Summary of the method: as §1

[19] = test system: LB771-HNC (Head and Neck Carcinoma); assay: as above
Summary of the method: as §1

[20] = test system: NCI-H28 (Mesothelioma); assay: as above
Summary of the method: as §1
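Wherever Bliss excess, mean over the matrix is given: after 72 h of two-drug dosing.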

| Structure (SMILES) | Bliss excess [1] | Bliss excess [2] | Bliss excess [3] | Bliss excess [4] | Bliss excess [5] | Bliss excess [6] | Bliss excess [7] | Bliss excess [8] | Bliss excess [9] | Bliss excess [10] | Bliss excess [11] | Bliss excess [12] | Bliss excess [13] | Bliss excess [14] | Bliss excess [15] | Bliss excess [16] | combination Emax [17] | combination Emax [18] | combination Emax [19] | combination Emax [20] |
| --- | --- | --- | --- | --- | --- | --- | --- | --- | --- | --- | --- | --- | --- | --- | --- | --- | --- | --- | --- | --- |
| CN(C)CCCOc1ccc(-c2ccc3ncc4c(c3c2)n(C2CCOCC2)c(=O)n4C)cn1 [AZD0156] + C=CCn1c(=O)c2cnc(Nc3ccc(N4CCN(C)CC4)cc3)nc2n1-c1cccc(C(C)(C)O)n1 [AZD1775] (first compound max 1 µM, partner max 1 µM) | -0.009 | -0.0232 | -0.0193 | -0.0384 | -0.0182 | -0.0141 | -0.0593 | -0.0346 | -0.0358 | 0.012 | -0.0219 | -0.0303 | -0.0252 | -0.007 | -0.0768 | 0.0101 | 0.512 | 0.401 | 0.557 | 0.434 |
| COc1cccc(OCCCN)c1-c1cc(Nc2cnc(C#N)cn2)n[nH]1 [Prexasertib] + C[C@@H]1COCCN1C2=NC(=NC(=C2)C3(CC3)[S@](=N)(=O)C)C4=C5C=CNC5=NC=C4 [AZD6738] (first compound max 1 µM, 7x7, partner max 10 µM) | -0.0467 | 0.0838 | 0.0275 | -0.0158 | 0.0359 | 0.0344 | -0.0024 | 0.0058 | -0.0213 | -0.0226 | -0.0786 | -0.0078 | -0.0176 | 0.0095 | -0.0436 | -0.091 | 0.726 | 0.565 | 0.61 | 0.592 |
| Cc1cc2ncnn2cc1Nc1ncc2c(n1)n(C1CCOCC1)c(=O)n2C [AZD7648] + CN(C)CCCOc1ccc(-c2ccc3ncc4c(c3c2)n(C2CCOCC2)c(=O)n4C)cn1 [AZD0156] (first compound max 10 µM, 7x7, partner max 1 µM) | -0.101 | 0.0192 | 0.0229 | -0.0502 | -0.0169 | 0.0334 | 0.0059 | 0.0013 | 0.0196 | -0.061 | 0.0077 | -0.0198 | 0.0317 | 0.0271 | -0.0201 | -0.0485 | 0.35 | 0.342 | 0.299 | 0.307 |
| COc1cccc(OCCCN)c1-c1cc(Nc2cnc(C#N)cn2)n[nH]1 [Prexasertib] + CCc1c2c(nc3ccc(O)cc13)-c1cc3c(c(=O)n1C2)COC(=O)[C@]3(O)CC [SN-38] (first compound max 1 µM, 7x7, partner max 0.3 µM) | -0.0554 | -0.0477 | 0.104 | 0.157 | -0.0304 | 0.0061 | 0 | 0.0659 | 0.0774 | -0.014 | -0.0831 | -0.0495 | -0.0686 | -0.0609 | -0.0624 | -0.0622 | 0.75 | 0.669 | 0.647 | 0.616 |
| C[C@@H]1COCCN1c1cc(C2([S@](C)(=N)=O)CC2)nc(-c2ccnc3[nH]ccc23)n1 [AZD6738] + O=C(c1cc(Cc2n[nH]c(=O)c3ccccc23)ccc1F)N1CCN(C(=O)C2CC2)CC1 [Olaparib] (first compound max 10 µM, 7x7, partner max 10 µM) | -0.0839 | 0.0684 | -0.0643 | -0.0124 | -0.0296 | 0.0247 | 0.0337 | 0.0025 | 0.0266 | -0.0594 | 0.0189 | 0.0407 | 0.0101 | 0.0221 | -0.0125 | -0.0454 | 0.535 | 0.374 | 0.483 | 0.408 |
| Cc1c2c(nn1C)CSCc1cc(n(C)n1)CSc1cc(c3ccccc3c1)OCCCc1c(C(=O)O)n(C)c3c-2c(Cl)ccc13 [AZD5991] + CN(C)CCCOc1ccc(-c2ccc3ncc4c(c3c2)n(C2CCOCC2)c(=O)n4C)cn1 [AZD0156] (first compound max 1 µM, 7x7, partner max 1 µM) | -0.0605 | -0.0065 | -0.0217 | -0.0154 | -0.033 | 0.0093 | 0.0096 | 0.0213 | 0.0551 | -0.0178 | 0.0088 | 0.0198 | 0.0041 | 0.0239 | -0.0229 | -0.0457 | 0.572 | 0.256 | 0.442 | 0.194 |
| CC1(C)CCC(CN2CCN(c3ccc(C(=O)NS(=O)(=O)c4ccc(NCC5CCOCC5)c([N+](=O)[O-])c4)c(Oc4cnc5[nH]ccc5c4)c3)CC2)=C(c2ccc(Cl)cc2)C1 [Venetoclax] + Cc1cc2ncnn2cc1Nc1ncc2c(n1)n(C1CCOCC1)c(=O)n2C [AZD7648] (first compound max 1 µM, 7x7, partner max 10 µM) | -0.0477 | -0.0501 | 0.0066 | 0.049 | -0.0407 | -0.0115 | -0.006 | -0.0033 | -0.0465 | -0.0293 | -0.0039 | -0.0323 | -0.0396 | -0.0154 | -0.0196 | -0.0638 | 0.49 | 0.263 | 0.271 | 0.216 |
| CC1(C)CCC(CN2CCN(c3ccc(C(=O)NS(=O)(=O)c4ccc(NCC5CCOCC5)c([N+](=O)[O-])c4)c(Oc4cnc5[nH]ccc5c4)c3)CC2)=C(c2ccc(Cl)cc2)C1 [Venetoclax] + C[C@@H]1COCCN1C2=NC(=NC(=C2)C3(CC3)[S@](=N)(=O)C)C4=C5C=CNC5=NC=C4 [AZD6738] (first compound max 1 µM, 7x7, partner max 10 µM) | 0.0224 | -0.0323 | 0.0228 | 0.0561 | -0.0853 | -0.003 | -0.014 | -0.0296 | -0.0331 | -0.0471 | -0.022 | 0.005 | -0.0796 | -0.0455 | -0.0674 | -0.0184 | 0.64 | 0.464 | 0.474 | 0.472 |
| Cc1c2c(nn1C)CSCc1cc(n(C)n1)CSc1cc(c3ccccc3c1)OCCCc1c(C(=O)O)n(C)c3c-2c(Cl)ccc13 [AZD5991] + C[C@@H]1COCCN1C2=NC(=NC(=C2)C3(CC3)[S@](=N)(=O)C)C4=C5C=CNC5=NC=C4 [AZD6738] (first compound max 1 µM, 7x7, partner max 10 µM) | 0.0272 | 0.0431 | 0.0348 | -0.0137 | -0.0496 | 0.0197 | 0.0599 | 0.0549 | -0.0265 | -0.0605 | 0.0323 | 0.0585 | 0.0082 | 0.0184 | -0.0167 | -0.0314 | 0.853 | 0.424 | 0.806 | 0.533 |
| Cc1c2c(nn1C)CSCc1cc(n(C)n1)CSc1cc(c3ccccc3c1)OCCCc1c(C(=O)O)n(C)c3c-2c(Cl)ccc13 [AZD5991] + C=CCn1c(=O)c2cnc(Nc3ccc(N4CCN(C)CC4)cc3)nc2n1-c1cccc(C(C)(C)O)n1 [AZD1775] (first compound max 1 µM, partner max 1 µM) | 0.0122 | 0.0854 | 0.0566 | -0.0152 | 0.0001 | 0.0319 | 0.0271 | 0.001 | -0.0732 | -0.0065 | 0.101 | 0.045 | -0.0002 | -0.0399 | -0.0981 | -0.0417 | 0.812 | 0.487 | 0.745 | 0.416 |
| Cc1c2c(nn1C)CSCc1cc(n(C)n1)CSc1cc(c3ccccc3c1)OCCCc1c(C(=O)O)n(C)c3c-2c(Cl)ccc13 [AZD5991] + Cn1cnc2c(F)c(Nc3ccc(Br)cc3Cl)c(C(=O)NOCCO)cc21 [Selumetinib] (first compound max 1 µM, 7x7, partner max 3 µM) | 0.0387 | 0.0247 | 0.102 | 0.0071 | 0.0066 | -0.0313 | -0.0118 | 0.0217 | 0.0198 | -0.0511 | 0.0465 | 0.0634 | 0.0143 | 0.0542 | -0.0269 | -0.02 | 0.535 | 0.829 | 0.429 | 0.316 |
| CC1(C)CCC(CN2CCN(c3ccc(C(=O)NS(=O)(=O)c4ccc(NCC5CCOCC5)c([N+](=O)[O-])c4)c(Oc4cnc5[nH]ccc5c4)c3)CC2)=C(c2ccc(Cl)cc2)C1 [Venetoclax] + Cn1cnc2c(F)c(Nc3ccc(Br)cc3Cl)c(C(=O)NOCCO)cc21 [Selumetinib] (first compound max 1 µM, 7x7, partner max 3 µM) | 0.0306 | 0.0346 | 0.0554 | 0.0155 | -0.0317 | -0.0214 | -0.0555 | 0.0315 | -0.0424 | -0.0583 | -0.0306 | -0.0088 | 0.0171 | -0.0386 | -0.057 | -0.0475 | 0.373 | 0.779 | 0.132 | 0.142 |
